Measured values published in patent US8603986B2, “Compounds and methods for modulating cadherin-mediated processes” (McGill University, priority 2005, dated 2013).
Entries after “also recorded” stand apart in the source; their conditions may differ. Marks after values point to notes of the source that are not given here.

How the values were obtained:
[1] = target: T1, N-cadherin/Fc chimeric protein (Homo sapiens, UniProt P19022); assay: Cadherin/Fc binding assay: phage ELISA on N-cadherin/Fc; set-up: key to ELISA Phage Binding to N-Cadherin/Fc Chimeric Protein 1.2 mM calcium / ELISA Phage Binding to N-Cadherin/Fc Chimeric Protein 2 mM EDTA / ELISA Phage Binding to Cadherin/Fc Chimeric Proteins N−: +: Phage bound to the chimeric protein; −: No phage bound to the chimeric protein
T1 construct: extracellular domain of human N-cadherin (Asp160-Ala724); purchased R&D Systems, Minneapolis, Minn
T1 sequence (P19022 160-724): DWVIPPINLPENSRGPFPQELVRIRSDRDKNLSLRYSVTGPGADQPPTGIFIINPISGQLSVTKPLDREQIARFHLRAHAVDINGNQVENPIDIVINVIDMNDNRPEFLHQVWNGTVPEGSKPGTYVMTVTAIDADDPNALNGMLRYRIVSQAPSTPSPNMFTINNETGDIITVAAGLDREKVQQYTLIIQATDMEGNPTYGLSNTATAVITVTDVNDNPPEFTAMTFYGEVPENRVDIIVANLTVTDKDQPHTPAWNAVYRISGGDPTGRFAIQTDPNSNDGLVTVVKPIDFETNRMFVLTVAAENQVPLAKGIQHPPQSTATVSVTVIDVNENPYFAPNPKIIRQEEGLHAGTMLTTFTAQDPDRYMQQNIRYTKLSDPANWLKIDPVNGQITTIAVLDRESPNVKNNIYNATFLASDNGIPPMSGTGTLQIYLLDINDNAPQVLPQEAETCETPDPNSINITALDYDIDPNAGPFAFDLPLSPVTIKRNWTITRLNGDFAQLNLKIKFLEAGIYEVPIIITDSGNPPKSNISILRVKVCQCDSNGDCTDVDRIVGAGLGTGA
Source text: (§1) The peptide libraries, Ph.D.-C7C™ and Ph.D.-12™ (New England BioLabs) were used in this study. These libraries are composed of 2×10^9 randomized 7 amino acid sequences flanked by cysteine residues and linear 12 amino acid sequences, respectively. The amino acid sequences are incorporated into the minor coat protein, pIII, of M13 phage. The N-cadherin/Fc chimeric protein (R&D Systems, Minneapolis, Minn.) consists of the extracellular domain of human N-cadherin (Asp160-Ala724) and the Fc region of human IgG1. The E-cadherin/Fc chimeric protein (R&D Systems, Minneapolis, Minn.) consists of the extracellular domain of human E-cadherin (Asp155-Ile707) and the Fc region of human IgG1.
The binding of each clone to the cadherin/Fc chimeric proteins was confirmed by ELISA. Wells of ProBind microtiter plates (Falcon) were coated with either N-cadherin/Fc or E-cadherin/Fc chimeric protein (100 ng/well) or human IgG1 (which contains the Fc fragment) (100 ng/well). […] Non-coated wells were also used to exclude any phage that bound to the plastic surface. […] M13 phage without any insert were used to control the non-specific binding of the phage itself to the target. […] […] Horseradish peroxidase substrate, TMB (Sigma), was added to each well (100 μl/well and after color development the reaction was stopped by addition of 100 μl 0.5 M sulphuric acid to each well. The intensity of the color was measured at 450 nm.
(§2) The phage clones shown to bind to the N-cadherin/Fc chimeric protein by ELISA were also evaluated for their ability to bind to E-cadherin/Fc and VE-cadherin/Fc chimeric proteins. The phage clones shown to bind to the E-cadherin/Fc chimeric protein by ELISA were also evaluated for their ability to bind to N-cadherin/Fc and VE-cadherin/Fc chimeric proteins. The same ELISA protocol described in the previous section was used to perform this evaluation with the exception that the wells were coated with either 100 ng N-cadherin/Fc, E-cadherin/Fc or VE-cadherin/Fc chimeric protein (R&D Systems, Minneapolis, Minn.).

[2] = target: T2, VE-cadherin/Fc chimeric protein (Homo sapiens, UniProt P33151); assay: Cadherin specificity: phage ELISA on VE-cadherin/Fc; format: binding; set-up: key: +: Phage bound to the chimeric protein; −: No phage bound to the chimeric protein
T2 construct: purchased R&D Systems, Minneapolis, Minn
Procedure: (§3) The binding of each clone to the cadherin/Fc chimeric proteins was confirmed by ELISA. Wells of ProBind microtiter plates (Falcon) were coated with either N-cadherin/Fc or E-cadherin/Fc chimeric protein (100 ng/well) or human IgG1 (which contains the Fc fragment) (100 ng/well). After blocking the nonspecific sites with TBS containing 3% BSA and 1.2 mM CaCl2 for 1 h at 37° C., phage clones (10^9 pfu) diluted in TBST containing 3% BSA and 1.2 mM CaCl2 (100 μl/well). Non-coated wells were also used to exclude any phage that bound to the plastic surface. After 1 h incubation at room temperature, wells were washed 3 times with TBST containing 3% BSA and 1.2 mM CaCl2. M13 phage without any insert were used to control the non-specific binding of the phage itself to the target. Monoclonal anti-M13 antibody conjugated to horseradish peroxidase (Amersham Biosciences, Piscataway, N.J.) was diluted in TBST containing 3% BSA and 1.2 mM CaCl2 (1:2,000) and added to each well (100 μl/well). After 1 h incubation at room temperature, wells were washed three times with TBST containing 3% BSA and 1.2 mM CaCl2 and once with TBS containing 1.2 mM CaCl2. Horseradish peroxidase substrate, TMB (Sigma), was added to each well (100 μl/well and after color development the reaction was stopped by addition of 100 μl 0.5 M sulphuric acid to each well. The intensity of the color was measured at 450 nm.
as §2

[3] = target: T3, E-cadherin/Fc chimeric protein (Homo sapiens, UniProt P12830); assay: Cadherin/Fc binding assay: phage ELISA on E-cadherin/Fc; set-up: key: +: Phage bound to the chimeric protein; −: No phage bound to the chimeric protein
T3 construct: extracellular domain of human E-cadherin (Asp155-Ile707); purchased R&D Systems, Minneapolis, Minn
T3 sequence (P12830 155-707): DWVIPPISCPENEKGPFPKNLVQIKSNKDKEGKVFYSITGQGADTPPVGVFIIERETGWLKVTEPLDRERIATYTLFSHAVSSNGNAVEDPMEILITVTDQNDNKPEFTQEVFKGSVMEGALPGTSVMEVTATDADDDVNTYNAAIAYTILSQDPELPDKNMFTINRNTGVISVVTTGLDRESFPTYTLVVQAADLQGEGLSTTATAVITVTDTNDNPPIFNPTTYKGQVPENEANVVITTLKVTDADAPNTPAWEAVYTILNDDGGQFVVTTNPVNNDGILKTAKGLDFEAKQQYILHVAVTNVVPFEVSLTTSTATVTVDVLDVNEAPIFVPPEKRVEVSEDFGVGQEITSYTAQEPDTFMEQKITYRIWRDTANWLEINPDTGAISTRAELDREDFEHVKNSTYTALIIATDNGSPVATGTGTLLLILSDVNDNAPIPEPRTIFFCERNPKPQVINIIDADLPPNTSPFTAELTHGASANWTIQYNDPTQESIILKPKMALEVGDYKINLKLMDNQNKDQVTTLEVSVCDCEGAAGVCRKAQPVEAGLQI
Source text: as §1, §3, §2

[4] = Table 4, Ph.D.-12 library clones
[5] = Table 7, Ph.D.-12 clones selected on E-cadherin/Fc
[6] = Table 3, clones selected in the absence of calcium
[7] = Table 6, Ph.D.-C7C clones selected on E-cadherin/Fc
[8] = Table 2, Ph.D.-C7C library clones

T2 sequence (P33151 with tags, fused parts or gaps limits assumed, species assumed): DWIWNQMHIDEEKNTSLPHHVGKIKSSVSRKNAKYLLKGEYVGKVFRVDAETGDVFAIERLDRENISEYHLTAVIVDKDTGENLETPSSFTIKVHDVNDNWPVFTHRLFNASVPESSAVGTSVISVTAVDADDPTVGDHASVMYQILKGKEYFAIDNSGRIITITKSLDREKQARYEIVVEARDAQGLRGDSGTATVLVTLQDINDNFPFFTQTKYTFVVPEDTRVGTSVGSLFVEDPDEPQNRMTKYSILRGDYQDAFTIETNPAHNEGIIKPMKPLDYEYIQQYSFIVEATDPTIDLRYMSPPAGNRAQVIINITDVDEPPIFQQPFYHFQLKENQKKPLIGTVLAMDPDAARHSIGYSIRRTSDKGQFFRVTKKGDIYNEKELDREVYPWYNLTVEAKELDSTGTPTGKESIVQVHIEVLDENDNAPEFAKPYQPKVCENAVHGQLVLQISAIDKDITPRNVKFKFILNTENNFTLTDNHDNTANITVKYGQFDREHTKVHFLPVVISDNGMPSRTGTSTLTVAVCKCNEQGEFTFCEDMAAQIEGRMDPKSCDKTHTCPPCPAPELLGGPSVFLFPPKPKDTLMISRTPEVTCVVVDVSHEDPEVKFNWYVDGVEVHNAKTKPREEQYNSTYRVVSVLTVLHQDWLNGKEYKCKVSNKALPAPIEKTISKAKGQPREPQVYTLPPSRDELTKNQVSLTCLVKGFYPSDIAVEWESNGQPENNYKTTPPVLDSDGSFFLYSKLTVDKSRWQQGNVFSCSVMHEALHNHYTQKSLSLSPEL

In the case of NWFIDFPVYPPL [Nc 12-a1], the “ELISA Phage Binding to N-Cadherin/Fc Chimeric Protein 1.2 mM calcium” value [1, 4] is reported as “+”, the “ELISA Phage Binding to N-Cadherin/Fc Chimeric Protein 2 mM EDTA” value [1, 4] is reported as “+” and the “ELISA Phage Binding to Cadherin/Fc Chimeric Proteins VE−” value [2, 4] is reported as “−”. For the same sequence, the “ELISA Phage Binding to Cadherin/Fc Chimeric Proteins E−” value [3, 4] was “−”.
For EWQYHWPTLQSR [Ec 12-22], the “ELISA Phage Binding to Cadherin/Fc Chimeric Proteins N−” value [1, 5] was “+”, the “ELISA Phage Binding to Cadherin/Fc Chimeric Proteins VE−” value [2, 5] was “−” and the “ELISA Phage Binding to Cadherin/Fc Chimeric Proteins E−” value [3, 5] was “+”.
For EWTFQWNSYPAD [Ec 12-10], the “ELISA Phage Binding to Cadherin/Fc Chimeric Proteins N−” value [1, 5] was “+”, the “ELISA Phage Binding to Cadherin/Fc Chimeric Proteins VE−” value [2, 5] was “−” and the “ELISA Phage Binding to Cadherin/Fc Chimeric Proteins E−” value [3, 5] was “+”.
With WYVCVGAHC [NoCa1] the “phage binding to N-cadherin/Fc chimeric protein by ELISA” value [1] was “good ELISA signal; also recorded: strong ELISA signal”, the “ELISA Phage Binding to N-Cadherin/Fc Chimeric Protein 1.2 mM calcium” value [1, 6] was “+*” and the “ELISA Phage Binding to N-Cadherin/Fc Chimeric Protein 2 mM EDTA” value [1, 6] was “+”. The “ELISA Phage Binding to Cadherin/Fc Chimeric Proteins VE−” value [2, 6] was “−” and the “ELISA Phage Binding to Cadherin/Fc Chimeric Proteins E−” value [3, 6] was “−**”.
For AWTWSLPTLPQS [Ec 12-a5], the “ELISA Phage Binding to Cadherin/Fc Chimeric Proteins N−” value [1, 5] was “+”, the “ELISA Phage Binding to Cadherin/Fc Chimeric Proteins VE−” value [2, 5] was “−” and the “ELISA Phage Binding to Cadherin/Fc Chimeric Proteins E−” value [3, 5] was “+”.
WQVCVGAHC [NoCa11] was tested, and the “phage binding to N-cadherin/Fc chimeric protein by ELISA” value [1] was “good ELISA signal; also recorded: strong ELISA signal”, the “ELISA Phage Binding to N-Cadherin/Fc Chimeric Protein 1.2 mM calcium” value [1, 6] was “+” and the “ELISA Phage Binding to N-Cadherin/Fc Chimeric Protein 2 mM EDTA” value [1, 6] was “+”. For the same sequence, the “ELISA Phage Binding to Cadherin/Fc Chimeric Proteins VE−” value [2, 6] was “−” and the “ELISA Phage Binding to Cadherin/Fc Chimeric Proteins E−” value [3, 6] was “−”.
For WTWHWPPCC [Ec a22], the “ELISA Phage Binding to Cadherin/Fc Chimeric Proteins N−” value [1, 7] was “+”, the “ELISA Phage Binding to Cadherin/Fc Chimeric Proteins VE−” value [2, 7] was “−” and the “ELISA Phage Binding to Cadherin/Fc Chimeric Proteins E−” value [3, 7] was “+”.
EWTWVFPTTHTS [Ec 12-07] was tested, and the “ELISA Phage Binding to Cadherin/Fc Chimeric Proteins N−” value [1, 5] was “+”, the “ELISA Phage Binding to Cadherin/Fc Chimeric Proteins VE−” value [2, 5] was “−” and the “ELISA Phage Binding to Cadherin/Fc Chimeric Proteins E−” value [3, 5] was “+”.
EWMIHYDSALTS [Nc 12-a6] was tested, and the “ELISA Phage Binding to N-Cadherin/Fc Chimeric Protein 1.2 mM calcium” value [1, 4] was “+”, the “ELISA Phage Binding to N-Cadherin/Fc Chimeric Protein 2 mM EDTA” value [1, 4] was “+” and the “ELISA Phage Binding to Cadherin/Fc Chimeric Proteins VE−” value [2, 4] was “−”. For the same sequence, the “ELISA Phage Binding to Cadherin/Fc Chimeric Proteins E−” value [3, 4] was “+”.
SWTWHFPESPPP [Ec 12-01] was tested, and the “ELISA Phage Binding to Cadherin/Fc Chimeric Proteins N−” value [1, 5] was “+”, the “ELISA Phage Binding to Cadherin/Fc Chimeric Proteins VE−” value [2, 5] was “−**” and the “ELISA Phage Binding to Cadherin/Fc Chimeric Proteins E−” value [3, 5] was “+*”.
For WEVCLTEKC [Nc 15], the “ELISA Phage Binding to N-Cadherin/Fc Chimeric Protein 1.2 mM calcium” value [1, 8] was “+”, the “ELISA Phage Binding to N-Cadherin/Fc Chimeric Protein 2 mM EDTA” value [1, 8] was “−” and the “ELISA Phage Binding to Cadherin/Fc Chimeric Proteins VE−” value [2, 8] was “−”. For the same sequence, the “ELISA Phage Binding to Cadherin/Fc Chimeric Proteins E−” value [3, 8] was “−”.
In the case of WQWCFKATC [Ec 21], the “ELISA Phage Binding to Cadherin/Fc Chimeric Proteins N−” value [1, 7] is reported as “+”, the “ELISA Phage Binding to Cadherin/Fc Chimeric Proteins VE−” value [2, 7] is reported as “−” and the “ELISA Phage Binding to Cadherin/Fc Chimeric Proteins E−” value [3, 7] is reported as “+”.
